Activity calls are given as the source filed them.
Columns and labels:
[1] = biological target: Cytochrome P450 2C19 (Homo sapiens, UniProt P33261); experiment: Cytochrome panel assay with activity outcomes. Panel member name: p450-cyp2c19 Compounds with AC50 equal or less than 10 uM are considered active; type: functional; settings: read-out: AC50
[2] = biological target: Cytochrome P450 2D6 (Homo sapiens, UniProt P10635);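 also: CYP2D6 member of a cytochrome P450 panel assay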
[3] = tested on: Streptococcus sp. 'group A'; experiment: growth inhibition of control SK(-) GAS strain, dose response, counter-screen for streptokinase expression inhibitor project, luminescence, kanamycin, BacTiterGlo, confirmation (AID 1900); type: functional, organism-based
[4] = biological target: T1, Streptokinase A (Streptococcus pyogenes serotype M1, UniProt P10520); experiment: S. pyogenes streptokinase expression inhibitors, potency, dose response, plasminogen activation absorbance, OD405 (AID 1914); type: functional, Streptococcus pyogenes M1 GAS;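 also: secreted streptokinase activity via plasminogen activation per viability signal from cell pellet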
T1 sequence (P10520 whole entry): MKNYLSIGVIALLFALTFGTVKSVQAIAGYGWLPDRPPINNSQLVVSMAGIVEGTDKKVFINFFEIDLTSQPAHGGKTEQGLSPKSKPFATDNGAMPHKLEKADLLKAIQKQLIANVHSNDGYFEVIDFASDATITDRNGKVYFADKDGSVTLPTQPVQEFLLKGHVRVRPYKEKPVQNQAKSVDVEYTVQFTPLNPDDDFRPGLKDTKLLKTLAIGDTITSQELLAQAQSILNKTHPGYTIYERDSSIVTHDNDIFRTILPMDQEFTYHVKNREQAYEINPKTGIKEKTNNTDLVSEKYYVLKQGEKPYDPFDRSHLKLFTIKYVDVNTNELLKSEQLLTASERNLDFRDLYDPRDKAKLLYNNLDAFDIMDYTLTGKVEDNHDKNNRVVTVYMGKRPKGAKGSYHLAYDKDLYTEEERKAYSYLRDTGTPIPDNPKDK

[5] = tested on: Streptococcus; experiment: Group A Streptococcus viability loss, dose response, counter-screen for streptokinase expression inhibitor project, luminescence, BacTiterGlo (AID 1915); type: functional, organism-based;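 also: potency for reduction of bacterial viability or growth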
[6] = biological target: Cytochrome P450 3A4 (Homo sapiens, UniProt P08684);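 also: CYP3A4 tested as one member of a cytochrome P450 panel screen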
Sequence of Cytochrome P450 3A4 (P08684 whole entry): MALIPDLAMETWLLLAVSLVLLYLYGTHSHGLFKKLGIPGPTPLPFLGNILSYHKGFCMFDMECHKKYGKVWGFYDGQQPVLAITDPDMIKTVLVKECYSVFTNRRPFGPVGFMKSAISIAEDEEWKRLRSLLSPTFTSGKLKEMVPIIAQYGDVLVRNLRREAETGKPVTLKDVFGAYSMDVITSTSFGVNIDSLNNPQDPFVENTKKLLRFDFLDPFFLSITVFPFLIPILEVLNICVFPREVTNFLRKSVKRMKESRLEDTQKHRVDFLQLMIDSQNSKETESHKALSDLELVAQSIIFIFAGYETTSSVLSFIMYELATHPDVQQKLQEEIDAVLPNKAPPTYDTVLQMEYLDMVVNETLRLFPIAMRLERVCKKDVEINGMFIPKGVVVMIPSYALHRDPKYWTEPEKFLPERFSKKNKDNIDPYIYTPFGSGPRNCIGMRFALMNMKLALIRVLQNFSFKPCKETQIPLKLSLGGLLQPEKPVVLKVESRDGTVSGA

[7] = biological target: Cytochrome P450 2C9 (Homo sapiens, UniProt P11712)
Sequence of Cytochrome P450 2C9 (P11712 whole entry): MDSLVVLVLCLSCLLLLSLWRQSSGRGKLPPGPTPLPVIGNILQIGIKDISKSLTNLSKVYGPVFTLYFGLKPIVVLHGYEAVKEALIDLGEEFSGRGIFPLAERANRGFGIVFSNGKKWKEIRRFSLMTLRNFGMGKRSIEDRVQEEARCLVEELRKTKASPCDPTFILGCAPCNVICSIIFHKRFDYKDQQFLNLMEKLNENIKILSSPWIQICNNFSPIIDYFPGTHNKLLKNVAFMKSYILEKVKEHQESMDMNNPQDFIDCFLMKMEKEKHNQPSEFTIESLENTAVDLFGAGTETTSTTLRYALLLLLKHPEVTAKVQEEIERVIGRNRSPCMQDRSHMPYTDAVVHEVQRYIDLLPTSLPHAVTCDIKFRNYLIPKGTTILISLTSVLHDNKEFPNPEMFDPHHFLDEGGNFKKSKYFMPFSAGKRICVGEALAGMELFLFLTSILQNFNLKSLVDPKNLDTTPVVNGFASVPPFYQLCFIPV

[8] = biological target: T2, Rac GTPase-activating protein 1 (Homo sapiens, UniProt Q9H0H5); experiment: MgcRacGAP GTPase-activating activity inhibitors, confirmation, biochemical, ADP Hunter fluorescence, primary and confirmatory (AID 624330); type: functional
T2 sequence (Q9H0H5 whole entry): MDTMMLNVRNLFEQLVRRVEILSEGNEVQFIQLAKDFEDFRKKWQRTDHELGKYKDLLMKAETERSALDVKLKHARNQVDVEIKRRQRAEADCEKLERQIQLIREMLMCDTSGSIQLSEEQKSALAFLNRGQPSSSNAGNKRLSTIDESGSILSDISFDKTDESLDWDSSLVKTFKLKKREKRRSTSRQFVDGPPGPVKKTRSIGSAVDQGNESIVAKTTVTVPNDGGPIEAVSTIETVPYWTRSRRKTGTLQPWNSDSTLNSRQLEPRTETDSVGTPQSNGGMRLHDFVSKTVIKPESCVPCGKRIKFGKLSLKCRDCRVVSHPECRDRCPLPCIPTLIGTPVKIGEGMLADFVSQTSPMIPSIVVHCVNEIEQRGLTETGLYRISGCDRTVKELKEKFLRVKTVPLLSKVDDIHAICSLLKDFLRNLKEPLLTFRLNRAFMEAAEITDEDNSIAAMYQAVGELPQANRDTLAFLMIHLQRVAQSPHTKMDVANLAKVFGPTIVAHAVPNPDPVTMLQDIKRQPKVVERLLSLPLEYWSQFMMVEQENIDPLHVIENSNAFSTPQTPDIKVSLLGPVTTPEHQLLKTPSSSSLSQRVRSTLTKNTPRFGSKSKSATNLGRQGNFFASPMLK

[9] = biological target: T3, Cytochrome P450 1A2 (Homo sapiens, UniProt P05177)
T3 sequence (P05177 whole entry): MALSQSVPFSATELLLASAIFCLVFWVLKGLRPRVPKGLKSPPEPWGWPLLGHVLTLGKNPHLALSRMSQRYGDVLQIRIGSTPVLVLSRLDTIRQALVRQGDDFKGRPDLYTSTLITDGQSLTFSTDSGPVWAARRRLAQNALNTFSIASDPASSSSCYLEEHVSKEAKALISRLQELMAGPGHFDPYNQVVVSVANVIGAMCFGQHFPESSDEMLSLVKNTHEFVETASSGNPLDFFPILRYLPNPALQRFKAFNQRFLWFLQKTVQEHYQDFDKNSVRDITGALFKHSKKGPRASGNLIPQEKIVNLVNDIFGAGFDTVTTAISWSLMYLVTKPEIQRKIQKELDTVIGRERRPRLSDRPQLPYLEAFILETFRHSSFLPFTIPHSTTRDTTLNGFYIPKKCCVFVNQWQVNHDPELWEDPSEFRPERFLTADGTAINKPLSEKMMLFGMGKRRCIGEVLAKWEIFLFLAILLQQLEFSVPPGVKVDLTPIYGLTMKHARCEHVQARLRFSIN

[10] = Shn3 3'UTR reporter inhibitors, dose response, cell-based, Clone20 osteoblasts, firefly luciferase, cherry-picked (AID 624132); type: functional;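 also: firefly luciferase luminescence from reporter carrying the Shn3 3'UTR in osteoblasts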
[11] = HepG2 cell cytotoxicity, dose response, cytotoxicity control for Shn3 inhibitor project, CellTiter-Glo, cherry-picked (AID 624134); type: functional, cell-based
[12] = control 3'UTR Renilla luciferase suppression, dose response, counter-screen for Shn3 inhibitor project, cell-based, Clone20-Shn3RL, cherry-picked (AID 624133); type: functional
[13] = biological target: FAD-linked sulfhydryl oxidase ALR (Homo sapiens, UniProt P55789); experiment: inhibitors of human ALR sulfhydryl oxidase, dose response, biochemical, H2O2 detection, luminescence, cherry-pick (AID 493248)
Sequence of FAD-linked sulfhydryl oxidase ALR (P55789 whole entry): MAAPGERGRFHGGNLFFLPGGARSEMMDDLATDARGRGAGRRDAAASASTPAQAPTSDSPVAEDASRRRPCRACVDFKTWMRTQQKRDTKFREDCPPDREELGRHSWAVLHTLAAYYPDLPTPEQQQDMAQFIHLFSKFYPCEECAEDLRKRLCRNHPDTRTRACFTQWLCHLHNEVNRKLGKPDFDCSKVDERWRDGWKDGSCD

[14] = NIH-3T3 fibroblast cytotoxicity, dose response, cytotoxicity control, cell-based, fluorescence, Alamar Blue, secondary assay (AID 2327); type: functional;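 also: NIH-3T3 mouse fibroblasts cultured with fluconazole at 8 µg/mL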
[15] = biological target: Paired box protein Pax-8 (Homo sapiens, UniProt Q06710); experiment: inhibitors of PAX8-driven TPO luciferase reporter, dose response, RMG-I cells, cherry-pick (AID 687027); type: functional, cell-based;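 also: luciferase reporter driven by Pax8 target thyroperoxidase promoter measured by SteadyGlo luminescence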
Sequence of Paired box protein Pax-8 (Q06710 whole entry): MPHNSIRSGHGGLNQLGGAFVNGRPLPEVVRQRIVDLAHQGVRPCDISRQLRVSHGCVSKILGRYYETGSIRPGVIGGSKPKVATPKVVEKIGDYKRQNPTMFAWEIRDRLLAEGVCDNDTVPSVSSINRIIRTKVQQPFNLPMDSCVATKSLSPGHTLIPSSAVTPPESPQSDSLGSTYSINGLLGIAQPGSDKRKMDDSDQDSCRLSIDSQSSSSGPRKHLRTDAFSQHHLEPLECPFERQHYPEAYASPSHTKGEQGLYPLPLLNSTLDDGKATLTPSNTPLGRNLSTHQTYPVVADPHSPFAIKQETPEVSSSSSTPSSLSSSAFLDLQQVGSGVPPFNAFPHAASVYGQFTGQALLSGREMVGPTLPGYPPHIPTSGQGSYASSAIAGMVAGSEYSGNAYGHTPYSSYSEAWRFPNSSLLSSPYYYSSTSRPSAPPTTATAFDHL

[16] = Luminescence Cell-Based Dose Response HTS to Identify Activators of Luciferase Translation or Activity in H4 […] Cells. [Related pubchem assays: 1829 (Project Summary), 1814 (Primary HTS)]; type: functional
[17] = tested on: H4; experiment: Luminescence Cell-Based Dose Response HTS to Identify Activators of 5'UTR Stem-Loop Driven Prion Protein mRNA Translation in H4 Neuroglioblastoma Cells. [Related pubchem assays: 1829 (Project Summary), 1814 (Primary HTS)]; type: functional; settings: Homo sapiens

Sequence of Cytochrome P450 2D6 (P10635 whole entry): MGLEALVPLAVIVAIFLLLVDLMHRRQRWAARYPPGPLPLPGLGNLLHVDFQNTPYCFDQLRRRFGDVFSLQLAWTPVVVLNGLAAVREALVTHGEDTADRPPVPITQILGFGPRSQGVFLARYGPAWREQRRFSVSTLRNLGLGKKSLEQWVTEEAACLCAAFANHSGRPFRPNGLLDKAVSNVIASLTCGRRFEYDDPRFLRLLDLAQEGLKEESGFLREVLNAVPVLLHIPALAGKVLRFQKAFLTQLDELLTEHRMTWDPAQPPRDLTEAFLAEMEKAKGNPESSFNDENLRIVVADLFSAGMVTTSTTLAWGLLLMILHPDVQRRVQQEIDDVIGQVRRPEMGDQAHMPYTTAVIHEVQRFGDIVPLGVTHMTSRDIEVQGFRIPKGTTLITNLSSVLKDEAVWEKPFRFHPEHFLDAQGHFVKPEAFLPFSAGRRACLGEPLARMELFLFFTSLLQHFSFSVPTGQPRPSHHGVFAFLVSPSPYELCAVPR
Sequence of Cytochrome P450 2C19 (P33261 whole entry): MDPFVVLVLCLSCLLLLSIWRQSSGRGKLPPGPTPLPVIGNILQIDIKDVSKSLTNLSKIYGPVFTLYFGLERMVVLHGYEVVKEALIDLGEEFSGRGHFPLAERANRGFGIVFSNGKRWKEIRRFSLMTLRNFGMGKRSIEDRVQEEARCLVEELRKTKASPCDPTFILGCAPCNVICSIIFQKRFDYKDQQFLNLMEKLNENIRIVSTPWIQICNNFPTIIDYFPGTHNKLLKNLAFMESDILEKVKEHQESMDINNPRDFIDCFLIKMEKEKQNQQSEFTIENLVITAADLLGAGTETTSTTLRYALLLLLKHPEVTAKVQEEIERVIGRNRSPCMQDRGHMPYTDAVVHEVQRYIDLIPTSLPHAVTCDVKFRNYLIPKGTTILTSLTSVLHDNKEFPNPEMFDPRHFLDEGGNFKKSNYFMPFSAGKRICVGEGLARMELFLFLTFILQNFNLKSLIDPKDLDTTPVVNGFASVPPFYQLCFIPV

Cc1nc2nc(C)c(CCC(=O)NCCCN3CCN(c4cccc(Cl)c4)CC3)c(C)n2n1
AC50 [1]: 25.1 µM (inconclusive)
AC50 [2]: 12.6 µM (inconclusive)

CCN(CC)CCc1nc(-c2ccccc2)no1
AC50 [2]: 6.31 µM (inconclusive)

FC(F)(F)c1cccc(NC(S)=Nc2ccc(Cl)cc2Cl)c1
EC50 [3]: 4.48 µM (active)
EC50 [4]: > 150 µM (not active)
EC50 [5]: 46.8 µM (active)
AC50 [2]: 7.94 µM (inconclusive)
AC50 [6]: 28.2 µM (inconclusive)
AC50 [7]: 31.6 µM (inconclusive)

CCCCOc1cc(C(=O)NCCN(CC)CC)c2ccccc2n1 [DIBUCAINE]
AC50 [2]: 7.94 µM (inconclusive)

Nc1ccc2ccc(O)cc2c1
IC50 [8]: 36.7 µM (active)

CCOCCCNCC(=O)NCC1CCCCC1
IC50 [8]: 141 µM (active)

CC1CCCCN1Cc1cccnc1 (stereo not given)
IC50 [8]: 109 µM (active)

O=C(NCc1ccco1)c1cc(C(=O)C2CC2)c[nH]1
AC50 [9]: 0.2 µM (inconclusive)
AC50 [7]: 39.8 µM (inconclusive)

CC(C)c1ccc(NC(=O)C(c2ccccc2)N2CCN(C=O)CC2)cc1 (stereo not given)
AC50 [1]: 28.2 µM (inconclusive)
AC50 [2]: 14.1 µM (inconclusive)
AC50 [9]: 31.6 µM (inconclusive)
AC50 [6]: 11.2 µM (inconclusive)
AC50 [7]: 14.1 µM (inconclusive)

COc1ccc(-n2c(=O)c(-c3ccc(Cl)cc3)nc3cnc(N4CCNCC4)nc32)cc1
AC50 [9]: 12.6 µM (inconclusive)

C[N+](C)(C)/N=C\c1ccc(O)c(O)c1
AC50 [2]: 2 µM (inconclusive)
AC50 [9]: 10 µM (inconclusive)

CCc1ccc(CNC(=O)c2cc3c(C)nc4ccccc4c3o2)cc1
AC50 [10]: 2.02 µM (active)
AC50 [11]: > 70 µM (inactive)
AC50 [12]: 7.78 µM (active)

O=[N+]([O-])c1ccc(-c2cn(-c3ccccc3F)c(=S)[nH]2)cc1
AC50 [13]: > 100 µM (inactive)

CCOC(=O)Cc1csc(NC(=S)NC(=O)c2ccc(F)cc2)n1
AC50 [9]: 1.12 µM (inconclusive)
AC50 [6]: 17.8 µM (inconclusive)
AC50 [7]: 1.26 µM (inconclusive)

COc1cc(/C=C2/C(=O)NN(c3ccccc3)C2=O)cc(Br)c1O
AC50 [13]: 0.484 µM (active)

Nc1n[nH]c(SCC(=O)Nc2ccccc2Sc2ccc(Cl)cc2)n1
AC50 [2]: 12.6 µM (inconclusive)

Cc1cc(NC(=O)Nc2ccc(N(C)C)cc2)c2cc(F)cc(F)c2n1
AC50 [2]: 31.6 µM (inconclusive)

CCc1nn(C)c(-c2nnc(S)n2N)c1Cl
AC50 [13]: 0.673 µM (active)
AC50 [7]: 28.2 µM (inconclusive)

Nc1cccc(/C=C/c2ccncc2)c1
AC50 [13]: 0.59 µM (active)

CCc1ccc(CCN2CCCCC2)nc1
AC50 [9]: 5.01 µM (inconclusive)

COc1ccc(-c2cc(-c3cc(F)ccc3O)[nH]n2)cc1OC
EC50 [14]: > 150 µM (inactive)
AC50 [2]: 28.2 µM (inconclusive)
AC50 [7]: 39.8 µM (inconclusive)

Cc1cc(NC(=O)c2ccc(S(=O)(=O)Nc3ccccc3)cc2)no1
AC50 [2]: 25.1 µM (inconclusive)

CCCN(C)C[C@H]1OCCCC[C@@H](C)Oc2ccc(NC(=O)c3ccccc3)cc2C(=O)N([C@H](C)CO)C[C@H]1C
AC50 [15]: 69.5 µM (active)

O=C(C1CC1)N1CCN=C1SCc1ccccc1Cl
AC50 [13]: 2.29 µM (active)

O=C(NCc1cccnc1)c1ccc(COc2ccccc2Cl)cc1
AC50 [13]: 0.055 µM (active)

COc1ccc(OC)c2nc(O)c(CCNS(=O)(=O)c3ccc(Cl)cc3)cc12
AC50 [1]: 8.91 µM (inconclusive)
AC50 [2]: 31.6 µM (inconclusive)
AC50 [6]: 5.62 µM (inconclusive)

Nn1c(S)nnc1Cc1ccccc1
AC50 [13]: 0.134 µM (active)

O=C(OC1CCN(CCCl)CC1)C(c1ccccc1)c1ccccc1
AC50 [2]: 31.6 µM (inconclusive)
AC50 [9]: 12.6 µM (inconclusive)
AC50 [6]: 10 µM (inconclusive)

Cc1ccc(C(=O)NNc2ncnc3ccccc23)cc1
EC50 [16]: 6.62 µM (active)
EC50 [17]: > 120 µM (not active)

OCC1OC(n2cnc3c(O)nnnc32)C(O)C1O (stereo not given)
AC50 [15]: 0.785 µM (active)

CCc1cc2c(nc1CC)CCN(CC/C(C)=N/O[C@@H](C)c1cn([C@@H]3COC[C@@H]3O)nn1)C2
AC50 [2]: 2.51 µM (inconclusive)

OCCn1cnc2c(SCc3ccccc3)ncnc21
AC50 [9]: 3.16 µM (inconclusive)

CC(C)=CCNc1ncnc2nc[nH]c12
AC50 [9]: 6.31 µM (inconclusive)

N#CCC(=O)Nc1ccc(C(=O)NCc2cccc(Cl)c2)cc1
AC50 [13]: 9.8 µM (active)

CCc1ccccc1N1C(=O)CC(N2CCc3ccccc32)C1=O (stereo not given)
AC50 [13]: 2.81 µM (active)

NC(=O)CC(NC(=O)c1ccccc1)c1ccc(N2CCC(Cc3ccccc3)CC2)c([N+](=O)[O-])c1 (stereo not given)
AC50 [10]: 2.61 µM (active)
AC50 [11]: 2.74 µM (active)
AC50 [12]: 4.2 µM (active)

CC(C)CN1C(=O)c2ccc(C(=O)Nc3ccccc3C(=O)O)cc2C1=O
AC50 [13]: > 100 µM (inactive)

O=C(Nc1ccccc1)c1cc(-n2cnnc2)ccc1Cl
AC50 [9]: 12.6 µM (inconclusive)
AC50 [7]: 25.1 µM (inconclusive)

N=C(N)SCc1nc(-c2ccc(Cl)cc2)no1
AC50 [2]: 3.16 µM (inconclusive)
AC50 [6]: 5.01 µM (inconclusive)

COc1ccc(S(=O)(=O)N2CCN(CC(=O)Nc3cc(OC)cc(OC)c3)CC2)cc1
AC50 [2]: 20 µM (inconclusive)

COc1cccc(CC(C(=O)Nc2cc(C)ccc2C)c2nn[nH]n2)c1OC (stereo not given)
AC50 [2]: 15.8 µM (inconclusive)
AC50 [6]: 25.1 µM (inconclusive)
